Literature values in article PMC9606943, “Synthesis and Chemopreventive Potential of 5-FU/Genistein Hybrids on Colorectal Cancer Cells” (Pharmaceuticals, 2022).

How the values were obtained:
MCF-7 = test system: MCF-7; parameters: method as in PMID 21389782; conditions: ER-positive breast cancer cell line; cited from earlier work
21PT = test system: 21PT; parameters: method as in PMID 21389782; conditions: ER-positive breast cancer cell line; cited from earlier work
T47D = test system: T47D; parameters: method as in PMID 21389782; conditions: ER-positive breast cancer cell line; cited from earlier work
SW480 cells = test system: SW480 cells; parameters: method as in earlier work; conditions: 48 h post-treatment with 300 µM; cited from earlier work

Compound | IC50 (MCF-7) | IC50 (21PT) | IC50 (T47D) | reduction in cell viability (SW480 cells)
O=c1c(-c2ccc(OCCn3cc(-c4ccccc4)nn3)cc2)coc2cc(OCCn3cc(-c4ccccc4)nn3)cc(O)c12 [E] | 800 nM | 900 nM | 900 nM | –
CC(=O)Oc1ccccc1C(=O)OCCn1cc(COc2cc(O)c3c(=O)c(-c4ccc(O)cc4)coc3c2)nn1 [F] | – | – | – | 40.49%
